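Exposure lasted 48 hours, with cells grown in 96-well plates and compounds tested at five concentrations. GI50 marks 50% less growth. At the TGI there is no net growth.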
Columns and labels:
Assay in all cases: growth of human tumour cells (NCI), 48 h
SK-MEL-5 melanoma = system: SK-MEL-5 melanoma
RXF 393 renal = system: RXF 393 renal
A498 renal = system: A498 renal
NCI-H460 lung = system: NCI-H460 lung
ACHN renal = system: ACHN renal
UACC-62 melanoma = system: UACC-62 melanoma
KM12 colon = system: KM12 colon
A549 NSCLC = system: A549 NSCLC
NCI/ADR-RES ovarian = system: NCI/ADR-RES ovarian
T-47D breast = system: T-47D breast
SR leukemia = system: SR leukemia
K-562 leukemia = system: K-562 leukemia
PC-3 prostate = system: PC-3 prostate
HCT-116 colon = system: HCT-116 colon
SNB-75 CNS = system: SNB-75 CNS
NCI-H23 lung = system: NCI-H23 lung
HOP-62 NSCLC = system: HOP-62 NSCLC
OVCAR-5 ovarian = system: OVCAR-5 ovarian
786-0 renal = system: 786-0 renal
DU-145 prostate = system: DU-145 prostate
MCF7 breast = system: MCF7 breast
BT-549 breast = system: BT-549 breast
HCC-2998 colon = system: HCC-2998 colon
MOLT-4 leukemia = system: MOLT-4 leukemia
CAKI-1 renal = system: CAKI-1 renal
SN12C renal = system: SN12C renal

With `N#Cc1c(NC(=O)c2ccccc2C(F)(F)F)sc2c1CCC(=O)C2` the GI50 (SK-MEL-5 melanoma) was 1.65 µM, the TGI (SK-MEL-5 melanoma) was 3.47 µM and the GI50 (RXF 393 renal) was 1.05 µM. The TGI (RXF 393 renal) was 2.8 µM, the GI50 (A498 renal) was 10.5 µM and the TGI (A498 renal) was 25 µM. It also gave a GI50 (NCI-H460 lung) of 3.35 µM, a TGI (NCI-H460 lung) of 19 µM and a GI50 (ACHN renal) of 0.433 µM. It also gave a TGI (ACHN renal) of 1.48 µM, a GI50 (UACC-62 melanoma) of 1.18 µM and a TGI (UACC-62 melanoma) of 2.96 µM. For the same compound, the GI50 (KM12 colon) was 3.44 µM, the TGI (KM12 colon) was 13.9 µM and the GI50 (A549 NSCLC) was 3.67 µM. The TGI (A549 NSCLC) was 29.2 µM, the GI50 (NCI/ADR-RES ovarian) was 1.31 µM and the TGI (NCI/ADR-RES ovarian) was 5.18 µM. It also gave a GI50 (T-47D breast) of 0.374 µM, a TGI (T-47D breast) of 3.24 µM and a GI50 (SR leukemia) of 0.359 µM. It also gave a TGI (SR leukemia) of 5.82 µM, a GI50 (K-562 leukemia) of 0.378 µM and a TGI (K-562 leukemia) of 11.3 µM. The GI50 (PC-3 prostate) was 0.384 µM, the TGI (PC-3 prostate) was 15.6 µM and the GI50 (HCT-116 colon) was 0.363 µM. For the same compound, the TGI (HCT-116 colon) was 4.89 µM, the GI50 (SNB-75 CNS) was 1.63 µM and the TGI (SNB-75 CNS) was 6.1 µM. The GI50 (NCI-H23 lung) was 1.04 µM, the TGI (NCI-H23 lung) was 9.28 µM and the GI50 (HOP-62 NSCLC) was 3.12 µM. For the same compound, the TGI (HOP-62 NSCLC) was greater than 100 µM, the GI50 (OVCAR-5 ovarian) was 1.48 µM and the TGI (OVCAR-5 ovarian) was 3.81 µM. It also gave a GI50 (786-0 renal) of 3.25 µM, a TGI (786-0 renal) greater than 100 µM and a GI50 (DU-145 prostate) of 4.67 µM. For the same compound, the TGI (DU-145 prostate) was greater than 100 µM, the GI50 (MCF7 breast) was 1.39 µM and the TGI (MCF7 breast) was 10.3 µM. The GI50 (BT-549 breast) was 1.09 µM, the TGI (BT-549 breast) was 8.62 µM and the GI50 (HCC-2998 colon) was 2.91 µM. The TGI (HCC-2998 colon) was 11.5 µM, the GI50 (MOLT-4 leukemia) was 1.61 µM and the TGI (MOLT-4 leukemia) was 16.7 µM. The GI50 (CAKI-1 renal) was 0.785 µM, the TGI (CAKI-1 renal) was 2.56 µM and the GI50 (SN12C renal) was 2.5 µM. The TGI (SN12C renal) was 15.9 µM.

— PubChem BioAssay (NCI)
